Measurements taken from paper PMC9889419 (Pharmacological Reports, 2022).
Values joined by “and” are separate entries in the source; they are usually repeats but may differ in a detail not shown here. Equal values may be shown once. Read-outs that look alike come from different tables or passages of the source. Marks after values point to notes of the source that are not given here.

Legend:
[1] = tested on: guinea pigs; conditions: 0.5%, cited from earlier work
[2] = tested on: mice; conditions: mice
[3] = tested on: mice; assay: Rotarod test (neurotoxicity); format: in vivo; conditions: mice;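 also: in vivo neurotoxicity screen run within the NIH Epilepsy Therapy Screening Program (ETSP, formerly Anticonvulsant Screening Program)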
[4] = tested on: rats; format: in vivo; conditions: ip
[5] = tested on: mice; assay: Formalin test (ETSP, area under the curve); format: in vivo; conditions: 20.0 mg/kg, ip
[6] = tested on: rats; format: in vivo; conditions: ip; remark: listed apart in the source
[7] = tested on: mice; assay: Corneal kindling; format: in vivo; conditions: ip, […]
[8] = tested on: mice; assay: 6 Hz test; format: in vivo; conditions: mice
Protocol: The 6 Hz model test was carried out according to the protocol originally described by Brown et al. [54] and more recently by Barton et al. [55] and Kamiński et al. [47] and is a model of pharmacoresistant epilepsy [56].

[9] = tested on: organotypic hippocampal slice cultures; assay: Neuroprotection primary screen, excitotoxin NMDA; format: cell-based; conditions: NMDA 10 µM; 10 and 100 µM compound
From the text: Gompound 1 : ADD Number: ItSot+ Batct: lE- Date Started:
Compound 2 : ADD Number: Froso Batct: le Date Completed i l|26-M ar -20 1 O […]
Excitotoxin: lNmoa lnsult Duration: la Uouo Solvent:
Primary Screen Results: ffi […]
Al lruuoa rolrr,| A2lr'rrr,tOa r Olrrr,t * --.- A3 lr'rnroa r oprvr + lsaoot+ t oplrl+aesogo iopM
BZ lr.rrr,ron ropr,t , -_-_-- 83 lluoa topt',r * jffi 1 4 t oopM.€sroso 1 oolrM la+eota tooptu*aasoeo roffi […]
The 'Primary screen Experiment" is a qualitative assessment of the ability of a compound to prevent excrtotoxic cell death. organotypic hippocampal slice cultures are treated *ltn r.i-."iivr-o-"spartate (NMDA) or kainic acad (KA) to induce neuronal cell death' Propidium iodide (Pl), a membrane-imper.eant cornpouna, is included in all wells of the culture plate.
Dying cells have compromised *]lT^"Toj*::, ttr. er rnJy oin "" into the cell, intercatate with DNA and fluoresce. Thus, the intensity of the Pl fluorescence is proportional to the amount of cell death in lhe individual itices. ttippocampat slice cullures are treated with the excitotoxin alone, or *i er. inoi"ui"o above, with the excitotoxin and either one -qf]bar-a Investigalional compounds at the concentrations indicated. lf neuroprotectron occurs as a consequence of the added […]
(§1) been treated with the excitotoxin alone.
(§2) (1 picture or pasted object on this page, not shown here)

[10] = tested on: rats; assay: Rotarod / TOX (neurotoxicity); conditions: rats, ip
Protocol: (§3) The assays were carried out within the Epilepsy Therapy Screening Program (ETSP, previously known as the Anticonvulsant Screening Program, ASP), Epilepsy Branch, National Institute of Neurological and Communicative Disorders and Stroke, National Institutes of Health in Rockville, MD, USA [23].
The obtained compounds were screened for antiseizure activity and neurotoxicity in vivo within the Epilepsy Therapy Screening Program (ETSP, previously known as the Anticonvulsant Screening Program, ASP), Epilepsy Branch, National Institute of Neurological and Communicative Disorders and Stroke, National Institutes of Health in Rockville, MD, USA [23].

[11] = tested on: rats; assay: Maximal electroshock seizure (MES) test; format: in vivo; conditions: ip
[12] = tested on: slices; assay: Propidium iodide uptake in slices; format: cell-based; conditions: 100.00 uM
From the text: Anticonvulsant Screeninq Proqram
Solvent Code: DMSO Solvent Prep:
Add Compound Conc,(uM) # of slices % ofTotal Propidium lodide Uptake(mean +,/- S.E.M)

[13] = tested on: mice; conditions: mouse, in vivo
Protocol: They were also evaluated in the iv pentylenetetrazole (PTZ) test.
Data are expressed as the mean PTZ dose ± SEM for n = 10 that induced clonus or twitch in mice exposed to a particular dose of the test compound

[14] = tested on: rats; assay: SCMET (subcutaneous Metrazol) test; format: in vivo; conditions: rats, ip, 0.50 h
[15] = tested on: mice; conditions: ip; cited from earlier work
[16] = tested on: mice; conditions: 32 mA, ip; cited from earlier work
[17] = tested on: mice; conditions: ip; cited from earlier work; remark: listed apart in the source
[18] = tested on: mice; assay: Formalin test (first screening); format: in vivo; conditions: 30.0 mg/kg, ip
Protocol: Formalin test. The first screening in doses 15 and 30 mg/kg was performed at the Jagiellonian University-Medical College. […] After 30 min, animals were injected with 20 μL of a 0.5% formalin solution into the plantar surface of the hind paw. The total time spent by animal licking or biting the injected paw was assessed for the following 40 min.

[19] = tested on: guinea pigs; assay: Infiltration anesthesia (intradermal wheal test); format: in vivo
Protocol: A painful reaction to a prick of the skin at the centre of the wheal three times and every 5 s with 5 min intervals during the first 30 min of observation was tested. The experiment was continued to achieve a return of a reaction to the prick. The control wheal was done by an intradermal injection of 0.1 mL of 0.9% NaCl [25]. Local anesthesia was determined by calculating the ratio of the number of positive responses (no flinch) to the number of negative responses (flinch).

[20] = tested on: rats; assay: Sciatic nerve ligation (SNL) model, von Frey test; format: in vivo; conditions: ip
[21] = tested on: mice; assay: Tail immersion test (local anesthetic activity); format: in vivo
Protocol: The tail immersion test in mice. […] The method was performed by subcutaneous (sc) injection of the tested substance dissolved in saline, at a concentration range 0.06–2%, in a constant volume of 0.2 mL about 1 cm from the root of the mouse tail. Fifteen minutes later, the 3-cm distal part of the tail was immersed into temperature-controlled water (50 ± 0.5 °C). The reaction time (latency until the tail is pulled away) was measured by the means of a chronometer. In this assay the cut-off was 20 s [29].

[22] = tested on: organotypic hippocampal slice cultures; assay: Neuroprotection primary screen, excitotoxin kainic acid; format: cell-based; conditions: kainic acid 20 µM; 10 and 100 µM compound
Protocol: Compound 2 : ADD t{umber, b890s0 Batch: lB- Date Compteted. Ect\,t""201 0 […]
Excilotoxin: llGinic ncia Insult Duration: l+ Hours Solvent: […]
Ai lxn zopr.,r aZ lxa zopr,r Ae lre zoprta
Bz lr<n zopn er ]ra zopr',t l:+aot a r ooprt/|*aa9o8o l oopM lgaeota t oot,tr,t*gB9o8o t oopM […]
The "Primary screen Experiment" is a qualitative assessment of the ability of a compound to prevent excitotoxic cell dearh. organotypic hippocampal slice clltures are treated with N-methyl-D-aipartate lNuoa; o; kainic acid (KA) to induce neuronal cell death. Propidium iodide (Pl), a membrane-impermeant compound, is included in all welts of the culture plate.
Dying cells have compromised cell membranes, thus Pl may diffuse into the cell, intercalate with DNA and ftuoresce. Thus, the intensity of the Pl fluorescence is proportional to the amount of cell death in the individual slices. Hippocampal slice cultures are treated with the excitotoxin alone, or where indicated above, with the excitotoxin and either one eltu/o investigational compounds at the concentrations indicated. lf neuroprotection occurs as a consequence of the added […]
as §1, §2

[23] = tested on: murine astrocytes; assay: Crystal violet (CV) assay; format: cell-based
Protocol: CV assay. Cells were seeded at a density of 1 × 10^4 cells per well in 96-well plates.

[24] = tested on: guinea pigs; assay: Corneal anesthesia; format: in vivo
Protocol: A. Corneal anesthesia. […] The corneal reflex was examined by irritation of right eye conjunctiva (studied eye) and a left eye conjunctiva (control eye) by horsehair. The strength of local anesthetic activity was determined from the moment of solution instillation to the moment of reflex return. The presence or lack of corneal reflex were assessed. The eye conjunctiva irritation was done 6 times (every 5 s) with the interval of 5 min during the first 30 min [31].

[25] = tested on: murine astrocytes; assay: MTT assay; format: cell-based
Protocol: Cells were seeded at a density of 1 × 10^4 cells per well in 96 well plates. […] Next, Crystal Dissolving Solution (Cayman) was added to each well.

[26] = tested on: mice; assay: Subcutaneous pentylenetetrazole seizure test (ScPTZ, SCMET); format: in vivo; conditions: mice, ip, […]
Protocol: as §3

## CCN(CC)CC(=O)Nc1c(C)cccc1C [Lidocaine]
[1]; 240 min
  Inhibition of pain reaction: 22.2%
[1]; 24 h
  Inhibition of pain reaction: 0%

## Cc1cccc(Cl)c1OCCNC(C)(CO)CO [Compound 7, 2-((2-(2-chloro-6-methylphenoxy)ethyl)amino)-2-methylpropane-1,3-diol]
[2]; ip, 0.5 h
  MES: active at: MES: active at 100 Rotarod: neurotoxic at 100 mg/kg
other
  melting point: 83 to 85 °C
[3]; ip, 0.5 h
  Rotarod: neurotoxic at: MES: active at 100 Rotarod: neurotoxic at 100 mg/kg

## CC[C@@H](CO)NCCOc1c(C)cccc1Cl [Compound 6, S-( +)-2-((2-(2-chloro-6-methylphenoxy)ethyl)amino)butan-1-ol]
[4]
  Pilocarpine-induced status epilepticus prevention: active at: 45 mg/kg
[4]; at 90 mg/kg
  Pilocarpine test: deaths: 8 deaths in 9 rats
[5]
  Area under the curve (I phase): 135.3 ± 36.4
  Area under the curve (II phase): 387.0 ± 110.1
  Area under the curve, % of control (I phase): 69.3% and 69.3; t14 = 1.5800%
[5]; listed as 354010
  Area under the curve (I phase): 135.2
  Area under the curve (II phase): 387.0
  Area under the curve, % of control (II phase): 57.2%
[6]; […]
  Hippocampal kindling ED50: 15.81 mg/kg
[7]
  Corneal kindling ED50: 10.50 (3.67–22.09) mg/kg
[8]; 32 mA, […], ip
  6 Hz ED50: 20.4 (14.9–25.4) mg/kg
[9]
  Test Result (neuroprotection): No neuroprotection observed
[10]
  Rotarod TD50: 44.29 (40.72–47.52) mg/kg
[11]
  MES PI: 4.19
  MES TPE: 0.5 h
[11]; 0.5 h (TPE)
  MES ED50: 10.58 (6.69–15.38) mg/kg
[12]
  % of Total Propidium Iodide Uptake (mean +/- S.E.M): 33.1%
[3]; ip
  Rotarod TD50: 47.7 (32.6–68.3) mg/kg
[3]; ip, 6 Hz report of Aug-2010
  TOX TD50: 35.8 mg/kg
[13]
  influence on seizure threshold: effect was not shown
[14]
  SCMET ED50: > 60.0 mg/kg

## CC(=O)[C@H]1CC[C@H]2[C@@H]3CC[C@H]4C[C@H](O)CC[C@]4(C)[C@H]3CC[C@]12C [Allopregnanolone]
[15]
  ScPTZ ED50: 13.7 (10.1–18.7) mg/kg
  ScPTZ TPE: 0.17 h
[16]
  6 Hz ED50: 14.2 (10.3–19.4) mg/kg
  6 Hz TPE: 0.17 h
[17]
  MES ED50: > 100 mg/kg
  MES TPE: 0.17 h

## CC[C@H](CO)NCCOc1c(C)cccc1Cl.Cl [Compound 5a, R-(-)-2-((2-(2-chloro-6-methylphenoxy)ethyl)amino)butan-1-ol hydrochloride]
[4]; at 40 mg/kg
  Pilocarpine-induced status epilepticus prevention: result: no activity
[5]
  Area under the curve, % of control (I phase): 76.5; t14 = 0.8847%
  Area under the curve, % of control (II phase): 91.5; t14 = 0.5440%
[6]
  Hippocampal kindling TPE: 0.25 h
[6]; at 40 mg/kg
  Hippocampal kindling seizure score by Racine (0–5), Rat1: 4
  Hippocampal kindling seizure score by Racine (0–5), Rat2: 0
[18]
  % of effect (I phase): 19.4%
  % of effect (II phase): 55.7%
  Time of licking paw ± SEM (I phase): 72.3 ± 8.7 s
  Time of licking paw ± SEM (II phase): 13.5 ± 5.4 s
[7]; at 25 mg/kg
  Corneal kindling seizure score by Racine (0–5): 4.3
[8]; 44 mA, TPE 0.5 h, ip
  6 Hz ED50: 52.49 (41.85–67.05) mg/kg
[8]; 44 mA, ip
  6 Hz TPE: 0.5 h
[8]; 44 mA, po
  6 Hz TPE: 0.25 h
[9]
  Test Result (neuroprotection): No neuroprotection
[10]
  Rotarod TPE: 0.25 h
  Rotarod TD50: 39.6 (36.2–78.3) mg/kg
[11]
  MES PI: 10.15
  MES TPE: 0.25 h
[11]; […]
  MES ED50: 3.9 (2.1–6.2) mg/kg
[19]; 0.125%, 5 min
  Inhibition of pain reaction: 83.33*** %
[19]; 0.125%, 30 min
  Inhibition of pain reaction: 44.44** %
[19]; 0.125%, 24 h
  Inhibition of pain reaction: 0%
[19]; 0.5%, 5 min
  Inhibition of pain reaction: 100*** %
[19]; 0.5%, 30 min
  Inhibition of pain reaction: 72.22*** %
[19]; 0.5%, 60 min
  Inhibition of pain reaction: 58.82** %
[19]; 0.5%, 120 min
  Inhibition of pain reaction: 52.94** %
[19]; 0.5%, 24 h
  Inhibition of pain reaction: 0%
[19]; […], 5 min
  Inhibition of pain reaction: 100*** %
[19]; […], 60 min
  Inhibition of pain reaction: 33.33* %
[19]; […], 240 min
  Inhibition of pain reaction: 16.67%
[19]; […], 24 h
  Inhibition of pain reaction: 0%
[20]; rat, in vivo
  SNL TPE: 1 h
[20]; rats, von Frey test
  SNL: active at: 4 mg/kg
[2]; ip
  MES ED50: 19.78 (16.16–22.33) mg/kg
[2]; po
  MES PI: 5.03
  MES TPE: 0.25 h
  MES ED50: 64.12 (52.15–75.37) mg/kg
[21]; 0.031%
  Prolongation of the time reaction: 40.0%
  Reaction time to painful stimulus: 4.9 ± 0.9 s
[21]; 0.094%
  Prolongation of the time reaction: 57.1%
  Reaction time to painful stimulus: 5.5 ± 1.6 s
[21]; 0.125%
  Prolongation of the time reaction: 297.1%
  Reaction time to painful stimulus: 13.9 ± 1.8 s
[21]; 0.5%
  Prolongation of the time reaction: 434.3%
  Reaction time to painful stimulus: 18.7 ± 1.3 s
[21]; 2.0%
  Prolongation of the time reaction: 391.4%
  Reaction time to painful stimulus: 17.2 ± 1.9 s
[21]; […]
  Prolongation of the time reaction: 8.6%
  Reaction time to painful stimulus: 3.8 ± 0.5 s
[22]
  Test Result (neuroprotection): No neuroprotection observed
[3]; ip
  Rotarod TD50: 54.01 (35.70–64.23) mg/kg
[3]; po
  Rotarod TPE: 0.25 h
  Rotarod TD50: 322.33 (257.98–382.69) mg/kg
[23]
  impact on proliferation (crystal violet): did not exhibit cytotoxic activity and a notable impact on proliferation
[24]; 0.125%, 5 min
  Inhibition of pain reaction: 46.67* %
[24]; 0.125%, 30 min
  Inhibition of pain reaction: 0%
[24]; 0.125%, 60 min
  Inhibition of pain reaction: 0%
[24]; 0.125%, 120 min
  Inhibition of pain reaction: 0%
[24]; 0.5%, 5 min
  Inhibition of pain reaction: 80.55*** %
[24]; 0.5%, 30 min
  Inhibition of pain reaction: 0%
[24]; 0.5%, 60 min
  Inhibition of pain reaction: 0%
[24]; 0.5%, 120 min
  Inhibition of pain reaction: 0%
[24]; […], 5 min
  Inhibition of pain reaction: 36.11* %
[24]; […], 30 min
  Inhibition of pain reaction: 0%
[24]; […], 60 min
  Inhibition of pain reaction: 0%
[24]; […], 120 min
  Inhibition of pain reaction: 0%
[25]
  cytotoxic activity (MTT): did not exhibit cytotoxic activity
[26]
  SCMET ED50: > 70.00 mg/kg
